Source: ChEMBL document CHEMBL4184202, “New lignans attenuating cognitive deterioration of Aβ transgenic flies discovered in Acorus tatarinowii” (Bioorg Med Chem Lett, 2018)
Calls of active or inactive are those of the source. No cut-off for these calls is given here.

System: Drosophila melanogaster
Assay: Antialzheimer disease activity in heterozygous transgenic Alzheimer's disease model fruit fly under control of elav-Gal4'C155 (P35*H29.3) expressing Abeta42 assessed as attenuation of cognitive deterioration by measuring increase in performance index by Pavlovian olfactory test
Type: functional, organism-based

Row | SMILES | Activity
1 | CC12CC3CC(C)(C1)CC(N)(C3)C2 | Active
2 | COc1cc([C@H]2O[C@@H](c3ccc(OC)c(OC)c3)[C@H](C)[C@@H]2C)ccc1O | Active
3 | COc1ccc(C(=O)[C@H]2CO[C@@H](c3ccc(OC)c(OC)c3)[C@@H]2C)cc1OC (racemic) | Active
4 | C/C=C/c1cc(OC)c2c(c1)[C@@H](C)[C@H](c1ccc(OC)c(OC)c1)O2 (relative stereo) | Active
5 | C/C=C/c1ccc(O[C@H](C)[C@@H](O)c2cc(OC)c(OC)c(OC)c2)c(OC)c1 (relative stereo) | Active
